Experimental data published in publication PMC12426595 (Cancer Research Communications, 2025).
Blank lines part the entries; values can stand above or below the molecule they belong to.

What was measured:
[1] = target: T1, BTK-NanoLuc Fusion Vector in HEK293 cells (Homo sapiens, UniProt Q06187); assay: NanoBRET intracellular binding assay, BTK; details: read-out: EC50 BTK (NanoBRET), positive control
T1 construct: host or cells: HEK293
Method: Intracellular binding was determined with a NanoBRET assay (Reaction Biology). […] The protein kinase inhibitors dasatinib and […] were used as positive controls.

[2] = In vivo DDI: gilteritinib pharmacokinetics; parameters: species or system mouse; details: plasma, po, 30 mg/kg, gilteritinib 30 mg/kg oral
[3] = In vivo DDI: pravastatin pharmacokinetics; details: male, C57BL/6, mouse, plasma, po, 20 mg/kg, C57BL/6 male, pravastatin 20 mg/kg oral
P-gp = details: cited from earlier work
[4] = female, C57BL/6, mouse, C57BL/6 female, perpetrator TL-895 3 mg/kg
[5] = female, C57BL/6, mouse, C57BL/6 female, perpetrator vehicle
[6] = female, NSG (NOD/SCID gamma), mouse, NSG female, perpetrator TL-895 3 mg/kg
[7] = female, NSG (NOD/SCID gamma), mouse, NSG female, perpetrator vehicle
[8] = male, C57BL/6, mouse, C57BL/6 male, perpetrator TL-895 3 mg/kg
[9] = male, C57BL/6, mouse, C57BL/6 male, perpetrator vehicle
[10] = male, NSG (NOD/SCID gamma), mouse, NSG male, perpetrator TL-895 3 mg/kg
[11] = male, NSG (NOD/SCID gamma), mouse, NSG male, perpetrator vehicle

T1 sequence (Q06187 whole entry, the tested form may be a part): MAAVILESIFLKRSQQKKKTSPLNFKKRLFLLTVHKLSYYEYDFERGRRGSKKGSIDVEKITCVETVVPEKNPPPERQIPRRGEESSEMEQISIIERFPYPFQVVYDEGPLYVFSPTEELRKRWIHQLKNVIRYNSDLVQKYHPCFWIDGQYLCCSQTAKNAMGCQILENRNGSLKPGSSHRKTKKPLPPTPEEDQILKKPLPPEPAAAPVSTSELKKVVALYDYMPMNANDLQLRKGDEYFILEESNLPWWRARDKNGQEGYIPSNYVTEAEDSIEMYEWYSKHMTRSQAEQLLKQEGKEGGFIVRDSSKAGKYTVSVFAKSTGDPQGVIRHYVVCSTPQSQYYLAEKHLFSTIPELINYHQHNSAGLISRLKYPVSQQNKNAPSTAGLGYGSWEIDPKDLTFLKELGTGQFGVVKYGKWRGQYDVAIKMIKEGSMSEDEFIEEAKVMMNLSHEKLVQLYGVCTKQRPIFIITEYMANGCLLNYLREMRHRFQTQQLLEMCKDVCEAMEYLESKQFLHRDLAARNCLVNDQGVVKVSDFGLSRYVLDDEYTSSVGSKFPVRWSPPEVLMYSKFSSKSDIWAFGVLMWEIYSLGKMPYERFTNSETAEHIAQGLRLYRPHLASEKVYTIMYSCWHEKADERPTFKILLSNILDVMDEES

EC50 [1]: 30.1 nM
Compound: CNC(=O)c1ccccc1Nc1nc(Nc2ccc(N3CCNCC3)cc2)ncc1Cl [CTx-0294885]

AUC [2, 4]: 6440 ng·h/mL
Cmax [2, 4]: 688 ± 97 ng/mL
AUC [2, 5]: 6980 ng·h/mL
Cmax [2, 5]: 787 ± 102 ng/mL
AUC [2, 6]: 4830 ng·h/mL
Cmax [2, 6]: 507 ± 28 ng/mL
AUC [2, 7]: 4930 ng·h/mL
Cmax [2, 7]: 593 ± 87 ng/mL
AUC [2, 8]: 5130 ng·h/mL
Cmax [2, 8]: 502 ± 113 ng/mL
AUC [2, 9]: 4960 ng·h/mL
Cmax [2, 9]: 469 ± 51 ng/mL
AUC [2, 10]: 4370 ng·h/mL
Cmax [2, 10]: 421 ± 20 ng/mL
AUC [2, 11]: 4410 ng·h/mL
Cmax [2, 11]: 440 ± 86 ng/mL
Compound: CCc1nc(C(N)=O)c(Nc2ccc(N3CCC(N4CCN(C)CC4)CC3)c(OC)c2)nc1NC1CCOCC1 [Gilteritinib, gilteritinib]

AUC ([3]; perpetrator TL-895 10 mg/kg): 49.8 ± 7.6 ng·h/mL
Cmax ([3]; perpetrator TL-895 10 mg/kg): 182 ± 31 ng/mL
AUC ([3]; perpetrator rifampin 20 mg/kg): 333 ± 64 ng·h/mL
Cmax ([3]; perpetrator rifampin 20 mg/kg): 994 ± 148 ng/mL
AUC ([3]; perpetrator vehicle): 102 ± 42 ng·h/mL
Cmax ([3]; perpetrator vehicle): 406 ± 186 ng/mL
Compound: CC[C@H](C)C(=O)O[C@H]1C[C@H](O)C=C2C=C[C@H](C)[C@H](CC[C@@H](O)C[C@@H](O)CC(=O)O)[C@H]21 [Pravastatin, pravastatin]

Compound: C=CC(=O)N1CCC[C@@H](n2nc(-c3ccc(Oc4ccccc4)cc3)c3c(N)ncnc32)C1 [ibrutinib]
effect of P-gp deficiency on overall exposure (P-gp): only minimal effects
